Experimental data from patent US20230031406A1, “COMPOUNDS AND COMPOSITIONS FOR TREATING CONDITIONS ASSOCIATED WITH NLRP ACTIVITY” (Novartis AG, priority 2018, published 2023).
pIC50: −log10 of the molar value.

system: PMA-differentiated THP-1 cells; experiment: IL-1β production in PMA-differentiated THP-1 cells stimulated with gramicidin (hTHP-1 assay containing 2% fetal bovine serum; Procedures 1 and 2); type: cell-based, human; conditions: Homo sapiens, THP-1, Table B1; 2% fetal bovine serum; class symbols; read-out: Average IC50 of compounds in hTHP-1 assay: hTHP-1 IC50
Description: The following protocol is suitable for testing the activity of the compounds disclosed herein. Procedure 1: IL-1β Production in PMA-Differentiated THP-1 Cells Stimulated with Gramicidin.
THP-1 cells were purchased from the American Type Culture Collection and sub-cultured according to instructions from the supplier. Cells were cultured in complete RPMI 1640 (containing 10% heat inactivated FBS, penicillin (100 units/ml) and streptomycin (100 μg/ml)), and maintained in log phase prior to experimental setup. Prior to the experiment, compounds were dissolved in dimethyl sulfoxide (DMSO) to generate a 30 mM stock. The compound stock was first pre-diluted in DMSO to 3, 0.34, 0.042 and 0.0083 mM intermediate concentrations and subsequently spotted using Echo550 liquid handler into an empty 384-well assay plate to achieve desired final concentration (e.g. 100, 33, 11, 3.7, 1.2, 0.41, 0.14, 0.046, 0.015, 0.0051, 0.0017 μM). DMSO was backfilled in the plate to achieve a final DMSO assay concentration of 0.37%. The plate was then sealed and stored at room temperature until required.
THP-1 cells were treated with PMA (Phorbol 12-myristate 13-acetate) (20 ng/ml) for 16-18 hours. On the day of the experiment the media was removed and adherent cells were detached with trypsin for 5 minutes. Cells were then harvested, washed with complete RPMI 1640, spun down, and resuspended in RPMI 1640 (containing 2% heat inactivated FBS, penicillin (100 units/ml) and streptomycin (100 μg/ml). The cells were plated in the 384-well assay plate containing the spotted compounds at a density of 50,000 cells/well (final assay volume 50 μl). Cells were incubated with compounds for 1 hour and then stimulated with gramicidin (5 μM) (Enzo) for 2 hours. Plates were then centrifuged at 340 g for 5 min. Cell free supernatant (40 μL) was collected using a 96—CHannel PlateMaster (Gilson) and the production of IL-1β was evaluated by HTRF (cisbio). The plates were incubated for 18 h at 4° C. and read using the preset HTRF program (donor emission at 620 nm, acceptor emission at 668 nm) of the SpectraMax i3x spectrophotometer (Molecular Devices, software SoftMax 6). A vehicle only control and a dose titration of CRID3 (100-0.0017 μM) were run concurrently with each experiment.
Procedure 2: IL-1β Production in PMA-Differentiated THP-1 Cells Stimulated with Gramicidin.
THP-1 cells were purchased from the American Type Culture Collection and sub-cultured according to instructions from the supplier. Prior to experiments, cells were cultured in complete RPMI 1640 (containing 10% heat inactivated FBS, penicillin (100 units/ml) and streptomycin (100 μg/ml)), and maintained in log phase prior to experimental setup. Prior to the experiment THP-1 were treated with PMA (Phorbol 12-myristate 13-acetate) (20 ng/ml) for 16-18 hours. Compounds were dissolved in dimethyl sulfoxide (DMSO) to generate a 30mM stock. On the day of the experiment the media was removed and adherent cells were detached with trypsin for 5 minutes. Cells were then harvested, washed with complete RPMI 1640, spun down, resuspended in RPMI 1640 (containing 2% heat inactivated FBS, penicillin (100 units/ml) and streptomycin (100 μg/ml). The cells were plated in a 384-well plate at a density of 50,000 cells/well (final assay volume […]). Compounds were first dissolved in assay medium to obtain a 5× top concentration of 500 μM. 10 step dilutions (1:3) were then undertaken in assay medium containing 1.67% DMSO. 5× compound solutions were added to the culture medium to achieve desired final concentration (e.g. 100, 33, 11, 3.7, 1.2, 0.41, 0.14, 0.046, 0.015, 0.0051, 0.0017 μM). Final DMSO concentration was at 0.37%. Cells were incubated with compounds for 1 hour and then stimulated with gramicidin (5 μM) (Enzo) for 2 hours. Plates were then centrifuged at 340 g for 5 min. Cell free supernatant (40 μL) was collected using a 96—CHannel PlateMaster (Gilson) and the production of IL-1β was evaluated by HTRF (cisbio). […]

SMILES	pIC50
Cc1nc2c(c(NC(=O)N=S(N)(=O)c3cnc(C(C)(C)O)s3)c1C(C)C)CCC2 (single isomer, unassigned) [Compound 116b, (R) or (S)-2-(2-hydroxypropan-2-yl)-N′-((3-isopropyl-2-methyl-6,7-dihydro-5H-cyclopenta[b]pyridin-4-yl)carbamoyl)thiazole-5-sulfonimidamide]	4.52 to 5.30
CCc1c(C)nc2c(c1NC(=O)N=S(N)(=O)c1cnc(C(C)(C)O)s1)CCC2 (single isomer, unassigned) [Compound 117b, (R) or (S)-N′-((3-ethyl-2-methyl-6,7-dihydro-5H-cyclopenta[b]pyridin-4-yl)carbamoyl)-2-(2-hydroxypropan-2-yl)thiazole-5-sulfonimidamide]	4.52 to 5.30
CC(C)(O)c1nc(CCO)c(S(N)(=O)=NC(=O)Nc2c3c(nc4c2CCC4)CCC3)s1 (single isomer, unassigned) [Compound 118a, (R) or (S)-N′-((1,2,3,5,6,7-hexahydrodicyclo-penta[b,e]pyridin-8-yl)carbamoyl)-4-(2-hydroxyethyl)-2-(2-hydroxypropan-2-yl)thiazole-5-sulfonimidamide]	6.00 to 6.70
CC(C)n1ccc(S(N)(=O)=NC(=O)Nc2c3c(nc4c2CCC4)CCC3)n1 (single isomer, unassigned) [Compound 119a, (R) or (S)-N′-((1,2,3,5,6,7-hexahydrodicyclo-penta[b,e]pyridin-8-yl)carbamoyl)-1-isopropyl-1H-pyrazole-3-sulfonimidamide]	5.30 to 6.00

same assay, conditions: Homo sapiens, THP-1, Table B1; 2% fetal bovine serum; numeric bounds; read-out: Average IC50 of compounds in hTHP-1 assay: hTHP-1 IC50

SMILES	pIC50
Cc1nc2c(c(NC(=O)N=S(N)(=O)c3cnc(C(C)(C)O)s3)c1C(C)C)CCC2 (single isomer, unassigned) [Compound 116a, (S) or (R)-2-(2-hydroxypropan-2-yl)-N′-((3-isopropyl-2-methyl-6,7-dihydro-5H-cyclopenta[b]pyridin-4-yl)carbamoyl)thiazole-5-sulfonimidamide]	< 4.52
CCc1c(C)nc2c(c1NC(=O)N=S(N)(=O)c1cnc(C(C)(C)O)s1)CCC2 (single isomer, unassigned) [Compound 117a, (S) or (R)-N′-((3-ethyl-2-methyl-6,7-dihydro-5H-cyclopenta[b]pyridin-4-yl)carbamoyl)-2-(2-hydroxypropan-2-yl)thiazole-5-sulfonimidamide]	< 4.52
CC(C)(O)c1nc(CCO)c(S(N)(=O)=NC(=O)Nc2c3c(nc4c2CCC4)CCC3)s1 (single isomer, unassigned) [Compound 118b, (S) or (R)-N′-((1,2,3,5,6,7-hexahydrodicyclo-penta[b,e]pyridin-8-yl)carbamoyl)-4-(2-hydroxyethyl)-2-(2-hydroxypropan-2-yl)thiazole-5-sulfonimidamide]	< 4.62
CC(C)n1ccc(S(N)(=O)=NC(=O)Nc2c3c(nc4c2CCC4)CCC3)n1 (single isomer, unassigned) [Compound 119b, (S) or (R)-N′-((1,2,3,5,6,7-hexahydrodicyclo-penta[b,e]pyridin-8-yl)carbamoyl)-1-isopropyl-1H-pyrazole-3-sulfonimidamide]	< 4.52
CNS(=O)(=NC(=O)Nc1c2c(nc3c1CCC3)CCC2)c1ccc(CN(C)C)cc1 (single isomer, unassigned) [Compound 120a, (R) or (S)-4-((dimethylamino)methyl)-N′-((1,2,3,5,6,7-hexahydro-dicyclopenta[b,e]pyridin-8-yl)carbamoyl)-N-methylbenzene-sulfonimidamide]	< 4.52

same assay, conditions: Table B1; 2% fetal bovine serum; class symbols; read-out: Average IC50 of compounds in hTHP-1 assay: hTHP-1 IC50

SMILES	pIC50
CC(C)(O)c1nc(CO)c(S(N)(=O)=NC(=O)Nc2c3c(nc4c2CCC4(C)C)CCC3)s1 (single isomer, unassigned) [Compound 121a, (R) or (S)-N′-((3,3-dimethyl-1,2,3,5,6,7-hexahydro-dicyclopenta[b,e]pyridin-8-yl)carbamoyl)-4-(hydroxymethyl)-2-(2-hydroxypropan-2-yl)thiazole-5-sulfonimidamide]	6.70 to 7.40
CC(C)(O)c1nc(CO)c(S(N)(=O)=NC(=O)Nc2c3c(nc4c2CCC4(C)C)CCC3)s1 (single isomer, unassigned) [Compound 121b, (S) or (R)-N′-((3,3-dimethyl-1,2,3,5,6,7-hexahydro-dicyclopenta[b,e]pyridin-8-yl)carbamoyl)-4-(hydroxymethyl)-2-(2-hydroxypropan-2-yl)thiazole-5-sulfonimidamide]	4.52 to 5.30
CC1(C)CCc2c1nc1c(c2NC(=O)N=S(N)(=O)c2ccn(C(F)F)n2)CCC1 (single isomer, unassigned) [Compound 122a, (R) or (S)-1-(difluoromethyl)-N′-((3,3-dimethyl-1,2,3,5,6,7-hexahydrodicyclo-penta[b,e]pyridin-8-yl)carbamoyl)-1H-pyrazole-3-sulfonimidamide]	6.70 to 7.40
CC1(C)CCc2c1nc1c(c2NC(=O)N=S(N)(=O)c2ccn(C(F)F)n2)CCC1 (single isomer, unassigned) [Compound 122b, (S) or (R)-1-(difluoromethyl)-N′-((3,3-dimethyl-1,2,3,5,6,7-hexahydrodicyclo-penta[b,e]pyridin-8-yl)carbamoyl)-1H-pyrazole-3-sulfonimidamide]	4.52 to 5.30
Cc1c(C2CC2)nc2c(c1NC(=O)N=S(N)(=O)c1cnc(C(C)(C)O)s1)CCC2 (single isomer, unassigned) [Compound 124a, (S) or (R)-N′-((2-cyclopropyl-3-methyl-6,7-dihydro-5H-cyclopenta[b]pyridin-4-yl)carbamoyl)-2-(2-hydroxypropan-2-yl)thiazole-5-sulfonimidamide]	4.52 to 5.30
Cc1c(C2CC2)nc2c(c1NC(=O)N=S(N)(=O)c1cnc(C(C)(C)O)s1)CCC2 (single isomer, unassigned) [Compound 124b, (R) or (S)-N′-((2-cyclopropyl-3-methyl-6,7-dihydro-5H-cyclopenta[b]pyridin-4-yl)carbamoyl)-2-(2-hydroxypropan-2-yl)thiazole-5-sulfonimidamide]	6.00 to 6.70

same assay, conditions: Table B1; 2% fetal bovine serum; numeric bounds; read-out: Average IC50 of compounds in hTHP-1 assay: hTHP-1 IC50

SMILES	pIC50
CNS(=O)(=NC(=O)Nc1c2c(nc3c1CCC3)CCC2)c1ccc(CN(C)C)cc1 (single isomer, unassigned) [Compound 120b, (S) or (R)-4-((dimethylamino)methyl)-N′-((1,2,3,5,6,7-hexahydro-dicyclopenta[b,e]pryidin-8-yl)carbamoyl)-N-methylbenzene-sulfonimidamide]	< 4.52

same assay, conditions: Table B2; 2% fetal bovine serum; class symbols; read-out: hTHP-1 IC50

SMILES	pIC50
CC(C)c1cnc(F)c(C(C)C)c1NC(=O)N=S(N)(=O)c1cnc(C(C)(C)O)s1 (single isomer, unassigned) [Compound 115a, (S) or (R)-N′-((2-fluoro-3,5-diisopropylpyridin-4-yl)carbamoyl)-2-(2-hydroxypropan-2-yl)thiazole-5-sulfonimidamide]	4.52 to 5.30
CC(C)c1cnc(F)c(C(C)C)c1NC(=O)N=S(N)(=O)c1cnc(C(C)(C)O)s1 (single isomer, unassigned) [Compound 115b, (R) or (S)-N′-((2-fluoro-3,5-diisopropylpyridin-4-yl)carbamoyl)-2-(2-hydroxypropan-2-yl)thiazole-5-sulfonimidamide]	5.30 to 6.00
